For assay [1], the target named is Dual specificity tyrosine-phosphorylation-regulated kinase 1A (Rattus norvegicus, UniProt Q63470). Type of assay: biochemical, Homo sapiens.
For assay [2], the target named is Female germline-specific tumor suppressor gld-1 (Caenorhabditis elegans, UniProt Q17339). The assay is described as follows: inhibitors of GLD-1 binding to TGE RNA, dose response, biochemical, fluorescence polarization, C. elegans (AID 2802).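 Also: fluorescence polarization of labeled TGE RNA bound by purified gld-1 protein.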 On the technique in general: In fluorescence polarisation assays a small probe gives low polarisation when free and higher when bound to something large.
Sequence of Female germline-specific tumor suppressor gld-1 (Q17339 whole entry): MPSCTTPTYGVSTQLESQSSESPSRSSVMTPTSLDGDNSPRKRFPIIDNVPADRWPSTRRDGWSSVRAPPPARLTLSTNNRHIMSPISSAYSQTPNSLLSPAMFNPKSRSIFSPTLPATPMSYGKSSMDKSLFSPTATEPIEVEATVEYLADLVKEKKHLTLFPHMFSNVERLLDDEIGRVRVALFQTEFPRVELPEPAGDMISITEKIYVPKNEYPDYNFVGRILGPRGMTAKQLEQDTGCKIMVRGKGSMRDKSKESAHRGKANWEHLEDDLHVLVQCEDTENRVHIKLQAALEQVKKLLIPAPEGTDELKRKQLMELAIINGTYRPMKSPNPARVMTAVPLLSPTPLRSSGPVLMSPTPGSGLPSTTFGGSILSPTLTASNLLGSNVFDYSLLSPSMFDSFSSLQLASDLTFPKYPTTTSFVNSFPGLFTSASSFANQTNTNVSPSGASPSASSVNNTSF

Another assay addresses Genome polyprotein (dengue virus type 2, UniProt P29990). The assay is described as follows: Dengue-2 NS5 methyltransferase inhibitors, primary screen, biochemical, confirmation dose response (AID 588689). It is filed as functional.
Another assay concerns the target Protein Rev (Human immunodeficiency virus type 1 group M subtype B (isolate HXB2)(HIV-1), UniProt P04618). The assay can be described thus: inhibitors of Rev binding to RRE RNA, dose response, biochemical, fluorescence polarization, HIV-1 (AID 434976). Details: species or system Human immunodeficiency virus 1.
A further assay has as its system Vero. The assay can be described thus: Vero cell cytotoxicity, cytotoxicity control for flavivirus capping enzyme inhibitors (AID 588742). It is filed as functional. To be noted: Chlorocebus sabaeus.
Assay [3] concerns the target T1, Sentrin-specific protease 7 (Homo sapiens, UniProt Q9BQF6).
T1 sequence (Q9BQF6 whole entry): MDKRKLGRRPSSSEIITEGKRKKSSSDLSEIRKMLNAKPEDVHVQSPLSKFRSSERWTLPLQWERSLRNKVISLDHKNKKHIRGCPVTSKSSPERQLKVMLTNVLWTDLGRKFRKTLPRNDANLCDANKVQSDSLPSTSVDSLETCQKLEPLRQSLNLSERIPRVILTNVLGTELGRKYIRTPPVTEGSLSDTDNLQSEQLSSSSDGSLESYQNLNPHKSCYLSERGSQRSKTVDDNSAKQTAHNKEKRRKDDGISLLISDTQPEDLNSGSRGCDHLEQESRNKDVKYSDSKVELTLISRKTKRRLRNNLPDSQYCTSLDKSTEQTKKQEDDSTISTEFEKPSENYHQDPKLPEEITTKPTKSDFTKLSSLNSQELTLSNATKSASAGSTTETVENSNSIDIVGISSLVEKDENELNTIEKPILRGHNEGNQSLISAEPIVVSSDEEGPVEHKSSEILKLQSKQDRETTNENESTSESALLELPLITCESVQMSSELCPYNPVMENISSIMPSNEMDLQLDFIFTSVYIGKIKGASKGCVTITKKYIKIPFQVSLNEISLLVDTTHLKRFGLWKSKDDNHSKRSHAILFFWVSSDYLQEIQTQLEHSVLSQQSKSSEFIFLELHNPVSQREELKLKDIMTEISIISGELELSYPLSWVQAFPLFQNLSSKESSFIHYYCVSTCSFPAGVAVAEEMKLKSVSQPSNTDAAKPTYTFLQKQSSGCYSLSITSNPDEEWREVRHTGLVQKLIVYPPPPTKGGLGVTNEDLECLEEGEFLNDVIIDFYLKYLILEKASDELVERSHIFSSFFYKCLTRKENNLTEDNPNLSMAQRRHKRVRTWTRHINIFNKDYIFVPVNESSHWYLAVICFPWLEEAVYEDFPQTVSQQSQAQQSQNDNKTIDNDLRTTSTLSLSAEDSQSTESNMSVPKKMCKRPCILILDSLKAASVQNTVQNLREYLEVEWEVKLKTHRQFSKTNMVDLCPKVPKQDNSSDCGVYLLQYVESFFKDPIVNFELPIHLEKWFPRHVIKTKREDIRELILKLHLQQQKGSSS
The assay can be described thus: SENP7 protease inhibitors, SAR follow-up, biochemical, luminescence, set 2 (AID 588600). It is filed as functional.

A further assay has as its target T2, Caspase-3 (Homo sapiens, UniProt P42574).
T2 sequence (P42574 whole entry): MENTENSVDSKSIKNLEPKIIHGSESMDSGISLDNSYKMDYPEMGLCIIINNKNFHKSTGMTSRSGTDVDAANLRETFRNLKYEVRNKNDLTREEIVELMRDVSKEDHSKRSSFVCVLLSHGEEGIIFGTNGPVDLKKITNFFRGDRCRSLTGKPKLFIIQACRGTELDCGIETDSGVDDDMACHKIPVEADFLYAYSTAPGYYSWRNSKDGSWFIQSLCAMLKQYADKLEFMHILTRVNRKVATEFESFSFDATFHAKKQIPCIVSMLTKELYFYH
The assay is described as follows: caspase-3 inhibitors as off-family protease, SAR follow-up, selectivity assay for SENP protease inhibitor project, biochemical, luminescence, set 2 (AID 588599). It is filed as functional.

Assay [4] concerns the target T3, Sentrin-specific protease 8 (Homo sapiens, UniProt Q96LD8).
T3 sequence (Q96LD8 whole entry): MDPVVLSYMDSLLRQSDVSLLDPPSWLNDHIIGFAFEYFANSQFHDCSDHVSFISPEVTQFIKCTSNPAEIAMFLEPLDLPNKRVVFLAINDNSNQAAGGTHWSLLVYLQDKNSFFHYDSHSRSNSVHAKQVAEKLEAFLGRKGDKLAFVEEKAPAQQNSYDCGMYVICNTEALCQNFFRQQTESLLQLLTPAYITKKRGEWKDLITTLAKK
The assay can be described thus: SENP8 protease inhibitors, SAR follow-up, biochemical, luminescence, set 2 (AID 588601). It is filed as functional.

Assay [5] concerns the target T4, Sentrin-specific protease 6 (Homo sapiens, UniProt Q9GZR1).
T4 sequence (Q9GZR1 whole entry): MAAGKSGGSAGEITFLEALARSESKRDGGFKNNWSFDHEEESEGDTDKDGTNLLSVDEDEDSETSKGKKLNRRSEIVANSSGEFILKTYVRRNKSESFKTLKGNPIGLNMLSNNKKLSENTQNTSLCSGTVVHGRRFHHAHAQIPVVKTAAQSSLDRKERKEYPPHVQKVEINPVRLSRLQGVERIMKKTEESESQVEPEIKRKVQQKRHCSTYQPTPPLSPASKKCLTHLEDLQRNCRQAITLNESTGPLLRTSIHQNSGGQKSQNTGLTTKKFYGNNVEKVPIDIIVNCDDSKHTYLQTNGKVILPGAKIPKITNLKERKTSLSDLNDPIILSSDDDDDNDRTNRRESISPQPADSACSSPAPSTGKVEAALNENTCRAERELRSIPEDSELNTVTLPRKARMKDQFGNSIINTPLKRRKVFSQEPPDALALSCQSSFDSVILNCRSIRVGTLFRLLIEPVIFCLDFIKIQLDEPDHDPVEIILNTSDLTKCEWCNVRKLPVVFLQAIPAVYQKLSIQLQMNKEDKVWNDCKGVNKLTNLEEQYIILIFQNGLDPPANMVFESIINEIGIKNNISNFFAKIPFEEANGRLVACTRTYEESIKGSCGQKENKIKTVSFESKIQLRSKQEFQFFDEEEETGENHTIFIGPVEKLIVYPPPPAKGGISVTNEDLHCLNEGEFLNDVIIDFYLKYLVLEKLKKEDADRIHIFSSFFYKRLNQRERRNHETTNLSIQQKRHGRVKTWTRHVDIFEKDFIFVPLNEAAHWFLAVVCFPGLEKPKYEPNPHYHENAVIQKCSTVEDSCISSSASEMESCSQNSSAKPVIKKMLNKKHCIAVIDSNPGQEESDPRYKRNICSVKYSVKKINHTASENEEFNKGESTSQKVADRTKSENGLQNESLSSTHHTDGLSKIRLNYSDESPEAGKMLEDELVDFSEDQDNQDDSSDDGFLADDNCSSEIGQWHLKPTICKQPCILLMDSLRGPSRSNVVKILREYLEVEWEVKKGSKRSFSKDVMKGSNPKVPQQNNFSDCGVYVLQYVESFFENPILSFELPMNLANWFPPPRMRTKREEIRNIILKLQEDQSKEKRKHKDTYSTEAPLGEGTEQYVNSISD
The assay can be described thus: SENP6 protease inhibitors, SAR follow-up, biochemical, luminescence, set 2 (AID 588598). It is filed as functional.

Assay [6] concerns HEK293. The assay can be described thus: SAR Analysis of small molecule inhibitors of both B-cell and T-cell specific antigen receptor-induced NF-kB activation in a HEK-293T cell line using a luminescence assay. [Related pubchem assays (depositor defined):AID435003, AID435022, AID465, AID489019, AID489029]. It is filed as functional, cell-based. To be noted: Homo sapiens.
The test system of assay [7] is HEK293. The assay is described as follows: cytotoxicity in HEK293T NF-kB-Luc cells, SAR follow-up, cytotoxicity control for NF-kB activator project, cell-based, resazurin fluorescence (AID 493251). Type of assay: functional. To be noted: Homo sapiens.
For another assay, the system named is Jurkat. The assay can be described thus: SAR Analysis of small molecule inhibitors of both B-cell and T-cell specific antigen receptor-induced NF-kB activation in a Jurkat cell line using a luminescence assay. [Related pubchem assays (depositor defined):AID435003, AID435022, AID465, AID489029]. Type of assay: functional, cell-based. Conditions: Homo sapiens.

The source made the active and inactive calls.

Sequence of Protein Rev (P04618 whole entry): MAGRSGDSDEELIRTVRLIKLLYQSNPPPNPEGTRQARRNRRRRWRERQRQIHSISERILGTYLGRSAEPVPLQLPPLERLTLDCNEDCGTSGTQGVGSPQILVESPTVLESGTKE
Sequence of Genome polyprotein (P29990 2492-3391 limits assumed): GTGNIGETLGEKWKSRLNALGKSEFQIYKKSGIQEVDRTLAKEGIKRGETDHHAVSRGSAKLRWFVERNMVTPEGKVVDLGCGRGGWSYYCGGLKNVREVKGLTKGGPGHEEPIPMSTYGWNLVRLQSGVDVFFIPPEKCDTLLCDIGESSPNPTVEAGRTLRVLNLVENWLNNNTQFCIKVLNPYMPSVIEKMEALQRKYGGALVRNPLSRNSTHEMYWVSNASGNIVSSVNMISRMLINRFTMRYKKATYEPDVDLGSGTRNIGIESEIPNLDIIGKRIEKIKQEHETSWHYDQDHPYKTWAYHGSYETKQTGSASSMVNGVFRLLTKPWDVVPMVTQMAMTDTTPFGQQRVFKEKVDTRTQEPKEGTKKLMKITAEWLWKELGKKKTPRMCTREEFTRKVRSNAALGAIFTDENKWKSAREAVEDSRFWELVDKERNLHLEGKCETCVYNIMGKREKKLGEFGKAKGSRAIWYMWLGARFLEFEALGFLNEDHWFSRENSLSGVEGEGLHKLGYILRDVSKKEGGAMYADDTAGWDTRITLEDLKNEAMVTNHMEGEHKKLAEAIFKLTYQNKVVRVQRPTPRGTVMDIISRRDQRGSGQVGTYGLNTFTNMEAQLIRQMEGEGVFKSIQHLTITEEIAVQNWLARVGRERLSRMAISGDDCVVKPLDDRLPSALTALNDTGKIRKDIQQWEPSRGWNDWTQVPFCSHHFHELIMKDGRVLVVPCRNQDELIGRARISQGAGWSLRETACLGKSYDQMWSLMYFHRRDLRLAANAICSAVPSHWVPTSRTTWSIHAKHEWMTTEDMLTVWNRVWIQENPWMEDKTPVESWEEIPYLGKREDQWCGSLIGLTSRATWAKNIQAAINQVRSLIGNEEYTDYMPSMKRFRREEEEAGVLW

What is called AC50 is the concentration giving half of the maximal activity seen. A word on the IC50: it is the concentration that gives 50% inhibition. The CC50 is the concentration giving 50% cytotoxicity. On to `COc1cc(O)cc2cc3c(c(O)c12)C(=O)CC(C)(O)O3` (configuration not stated), for which, in assay [1], the AC50 was 2.92 µM (active). Further, the IC50 in assay [2] was 2.96 µM (active); on Genome polyprotein it was 38.1 µM (active); on Protein Rev it was 16.2 µM (not active). The CC50 in the assay on Vero is > 40 µM (active).

In the case of `CC(=O)Nc1ccc2nc(NC(=O)c3n[nH]c4ccccc34)sc2c1`, the IC50 was > 99 µM (inactive) in assay [3], 4.41 µM (active) at Caspase-3, 40.3 µM (active) in assay [4] and > 99 µM (inactive) in assay [5].

For `Cc1ccc2cccc(N)c2n1`, the IC50 in the assay with HEK293 [6] was > 79 µM (inactive); in the assay with HEK293 [7], > 80 µM (inactive); with Jurkat, > 79 µM (inactive).

The values are drawn from ChEMBL document CHEMBL1201862, “PubChem BioAssay data set” (2004).
